Results taken from ChEMBL document CHEMBL4483862, “Open-source discovery of chemical leads for next-generation chemoprotective antimalarials” (2018).

Tested on: Plasmodium berghei
Assay: Luciferase/luciferin-expressing antifolate-resistant parasites were used to infect a culture of HepG2 cells that were pre-incubated with compounds. Infected hepatocytes emit light due to the luciferase reaction. Assay results are presented as the percent inhibition of light emission compared to control. […]
Type: functional
Conditions: sporozoite; for IC90: read-out: LUCIFERASE INFECTION ASSAY - IC90

SMILES | IC90 | further results
Cc1ccc(-c2nnc3c(C(F)(F)F)nc4ccccc4n23)cc1 | > 10.1 µM | IC50 (HEPG2TOX_HILL_SLOPE 6.88, HEPG2TOX_R_SQUARED 0.907, PBLUC_HILL_SLOPE 7.21, PBLUC_R_SQUARED 0.0351, read-out: LUCIFERASE INFECTION ASSAY - IC50): 8.59 µM
O=C(Nc1ccccc1C(=O)Nc1nnc(C(F)(F)F)s1)c1ccccc1 | 1.89 µM | IC50 (HEPG2TOX_HILL_SLOPE 6.74, HEPG2TOX_R_SQUARED 0.749, PBLUC_HILL_SLOPE 2.08, PBLUC_R_SQUARED 0.449, read-out: LUCIFERASE INFECTION ASSAY - IC50): 0.658 µM
Nc1nc(Cl)cc(Sc2ccc3ccccc3c2)n1 | > 11.5 µM | IC50 (HEPG2TOX_HILL_SLOPE 6.9, HEPG2TOX_R_SQUARED 0.449, read-out: LUCIFERASE INFECTION ASSAY - IC50): > 11.5 µM
COc1cc(NC(=O)N2CCc3nc(NCc4cccc(Oc5ccccc5)c4)ncc3C2)cc(OC)c1OC | > 6.09 µM | IC50 (HEPG2TOX_HILL_SLOPE 6.86, HEPG2TOX_R_SQUARED 0.395, PBLUC_HILL_SLOPE 8.32, PBLUC_R_SQUARED 0.196, read-out: LUCIFERASE INFECTION ASSAY - IC50): 5.31 µM
CC(=O)Nc1ccc(-c2cnc3ccc(-c4ccc(S(C)(=O)=O)cc4)nn23)cc1 | 7.89 µM | IC50 (HEPG2TOX_HILL_SLOPE 6.82, HEPG2TOX_R_SQUARED 0.682, PBLUC_HILL_SLOPE 2.96, PBLUC_R_SQUARED 0.544, read-out: LUCIFERASE INFECTION ASSAY - IC50): 3.75 µM
O=C(Nc1ccccc1)c1cc2sccc2s1 | > 12.7 µM | IC50 (HEPG2TOX_HILL_SLOPE 6.8, HEPG2TOX_R_SQUARED 0.21, read-out: LUCIFERASE INFECTION ASSAY - IC50): > 12.7 µM
CC(C)c1cccc(-c2nc3ccnc(NCc4ccc(N(C)C)cc4)c3[nH]2)c1 | > 10 µM | IC50 (HEPG2TOX_HILL_SLOPE 6.72, HEPG2TOX_R_SQUARED 0.795, PBLUC_HILL_SLOPE 11.9, PBLUC_R_SQUARED 0.428, read-out: LUCIFERASE INFECTION ASSAY - IC50): 8.78 µM
CC1c2ccsc2CCN1C(=S)NC(=O)c1ccc(Cl)cc1 (stereo unspecified) | > 9.4 µM | IC50 (HEPG2TOX_HILL_SLOPE 6.89, HEPG2TOX_R_SQUARED 0.823, PBLUC_HILL_SLOPE 41.7, PBLUC_R_SQUARED 0.0283, read-out: LUCIFERASE INFECTION ASSAY - IC50): 9.18 µM
c1cc(CNc2ncnc3nc[nH]c23)cc(COCc2ccco2)c1 | > 10 µM | IC50 (HEPG2TOX_HILL_SLOPE 6.82, HEPG2TOX_R_SQUARED 0.307, PBLUC_HILL_SLOPE 1.97, PBLUC_R_SQUARED 0.21, read-out: LUCIFERASE INFECTION ASSAY - IC50): 6.9 µM
CCCCN(C)CC(O)Cn1c2ccc(Cl)cc2c2cc(Cl)ccc21 (stereo unspecified) | 6.48 µM | IC50 (HEPG2TOX_HILL_SLOPE 6.86, HEPG2TOX_R_SQUARED 0.608, PBLUC_HILL_SLOPE 4.67, PBLUC_R_SQUARED 0.619, read-out: LUCIFERASE INFECTION ASSAY - IC50): 4.05 µM
O=S(=O)(NC1CCN(c2nn3cc(-c4ccccc4)nc3s2)CC1)c1cccs1 | 3.14 µM | IC50 (HEPG2TOX_HILL_SLOPE 6.79, HEPG2TOX_R_SQUARED 0.144, PBLUC_HILL_SLOPE 1.24, PBLUC_R_SQUARED 0.735, read-out: LUCIFERASE INFECTION ASSAY - IC50): 0.534 µM
Cc1ccc(CSc2nnc(NCc3ccccc3)s2)cc1 | > 10 µM | IC50 (HEPG2TOX_HILL_SLOPE 6.81, HEPG2TOX_R_SQUARED 0.677, read-out: LUCIFERASE INFECTION ASSAY - IC50): > 10 µM
COc1ccc(CCNc2nc(C)nc3sc(-c4ccccc4)cc23)cc1OC | > 10 µM | IC50 (HEPG2TOX_HILL_SLOPE 6.76, HEPG2TOX_R_SQUARED 0.162, read-out: LUCIFERASE INFECTION ASSAY - IC50): > 10 µM
Fc1cccc(-c2nc3ccnc(NCc4ccccc4)c3[nH]2)c1 | 4.56 µM | IC50 (HEPG2TOX_HILL_SLOPE 6.86, HEPG2TOX_R_SQUARED 0.629, PBLUC_HILL_SLOPE 1.32, PBLUC_R_SQUARED 0.696, read-out: LUCIFERASE INFECTION ASSAY - IC50): 0.868 µM
O=C(Cc1cn2ccsc2n1)NNC(=O)c1cccnc1Nc1cccc(C(F)(F)F)c1 | 7.63 µM | IC50 (HEPG2TOX_HILL_SLOPE 6.77, HEPG2TOX_R_SQUARED 0.513, PBLUC_HILL_SLOPE 2.49, PBLUC_R_SQUARED 0.696, read-out: LUCIFERASE INFECTION ASSAY - IC50): 3.16 µM
CC1=C(C(=O)OC(C)C)C(c2ccccc2)n2nc(-c3cccs3)nc2N1 (stereo unspecified) | > 10 µM | IC50 (HEPG2TOX_HILL_SLOPE 6.88, HEPG2TOX_R_SQUARED 0.357, read-out: LUCIFERASE INFECTION ASSAY - IC50): > 10 µM
O=C(CCn1ccnn1)Nc1ccc(Sc2ccc(Br)cc2)cc1 | > 10 µM | IC50 (HEPG2TOX_HILL_SLOPE 6.85, HEPG2TOX_R_SQUARED 0.647, PBLUC_HILL_SLOPE 1.94, PBLUC_R_SQUARED 0.683, read-out: LUCIFERASE INFECTION ASSAY - IC50): 6.08 µM

SMILES | IC90 | further results
CCOC(=O)CN(c1cc(OC(C)C)c(Cl)cc1Cl)S(=O)(=O)c1ccc(Cl)cc1 | > 6.86 µM | IC50 (HEPG2TOX_HILL_SLOPE 6.82, HEPG2TOX_R_SQUARED 0.403, PBLUC_HILL_SLOPE 1.36, PBLUC_R_SQUARED 0.622, read-out: LUCIFERASE INFECTION ASSAY - IC50): 3.13 µM
COc1nc2c(c(-c3c(F)cccc3Cl)c1C#N)Cc1ccccc1-2 | > 9.41 µM | IC50 (HEPG2TOX_HILL_SLOPE 6.94, HEPG2TOX_R_SQUARED 0.218, PBLUC_HILL_SLOPE 33.2, PBLUC_R_SQUARED 0.233, read-out: LUCIFERASE INFECTION ASSAY - IC50): 9 µM
COc1ccc(-c2csc3ncnc(NCc4cccnc4)c23)cc1 | > 10 µM | IC50 (HEPG2TOX_HILL_SLOPE 6.97, HEPG2TOX_R_SQUARED 0.88, PBLUC_HILL_SLOPE 2.74, PBLUC_R_SQUARED 0.795, read-out: LUCIFERASE INFECTION ASSAY - IC50): 6.71 µM
Cc1cccc(N2CCN(C(=O)c3ccccc3SCC(=O)Nc3ccc(F)cc3)CC2)c1C | > 10 µM | IC50 (HEPG2TOX_HILL_SLOPE 6.74, HEPG2TOX_R_SQUARED 0.191, PBLUC_HILL_SLOPE 2.5, PBLUC_R_SQUARED 0.41, read-out: LUCIFERASE INFECTION ASSAY - IC50): 5.48 µM
Cc1cccc(Nc2ccccc2C(=O)OCC(=O)Nc2cccc(C#N)c2)c1C | > 10 µM | IC50 (HEPG2TOX_HILL_SLOPE 6.86, HEPG2TOX_R_SQUARED 0.37, PBLUC_HILL_SLOPE 1.78, PBLUC_R_SQUARED 0.801, read-out: LUCIFERASE INFECTION ASSAY - IC50): 3.16 µM
O=c1c(Cl)cc(C(F)(F)F)cn1Cc1csc(Nc2ccccc2)n1 | > 10 µM | IC50 (HEPG2TOX_HILL_SLOPE 6.73, HEPG2TOX_R_SQUARED 0.639, PBLUC_HILL_SLOPE 3.67, PBLUC_R_SQUARED 0.234, read-out: LUCIFERASE INFECTION ASSAY - IC50): 8.88 µM
O=C(CC1CCCC1)N1CCc2nc(NCc3cccc(Oc4ccccc4)c3)ncc2C1 | > 7.46 µM | IC50 (HEPG2TOX_HILL_SLOPE 6.79, HEPG2TOX_R_SQUARED 0.796, PBLUC_HILL_SLOPE 75.4, PBLUC_R_SQUARED 0.123, read-out: LUCIFERASE INFECTION ASSAY - IC50): 7.45 µM
CC1CCCC(N2CC(C(=O)Nc3nc(-c4ccccn4)cs3)CC2=O)C1C (stereo unspecified) | 3.66 µM | IC50 (HEPG2TOX_HILL_SLOPE 6.97, HEPG2TOX_R_SQUARED 0.551, PBLUC_HILL_SLOPE 16.8, PBLUC_R_SQUARED 0.476, read-out: LUCIFERASE INFECTION ASSAY - IC50): 3.21 µM
CNc1nc2cnc(Nc3cccc(OC(F)(F)F)c3)cc2n1CCOC | > 10 µM | IC50 (HEPG2TOX_HILL_SLOPE 6.78, HEPG2TOX_R_SQUARED 0.0669, read-out: LUCIFERASE INFECTION ASSAY - IC50): > 10 µM
CCN(CC(O)COc1ccccc1-c1ccccc1)C1CCCCC1 (stereo unspecified) | 9.13 µM | IC50 (HEPG2TOX_HILL_SLOPE 6.72, HEPG2TOX_R_SQUARED 0.0493, PBLUC_HILL_SLOPE 495, PBLUC_R_SQUARED 0.169, read-out: LUCIFERASE INFECTION ASSAY - IC50): 9.09 µM
COc1ccccc1NS(=O)(=O)c1ccc2c(c1)N=Cc1c(C)nn(-c3ccc(Cl)cc3)c1O2 | > 10 µM | IC50 (HEPG2TOX_HILL_SLOPE 6.8, HEPG2TOX_R_SQUARED 0.772, PBLUC_HILL_SLOPE 15.5, PBLUC_R_SQUARED 0.126, read-out: LUCIFERASE INFECTION ASSAY - IC50): 9.36 µM
O=[N+]([O-])c1ccc(N2CCN(c3ncccc3C(F)(F)F)CC2)nc1 | > 9.34 µM | IC50 (HEPG2TOX_HILL_SLOPE 6.77, HEPG2TOX_R_SQUARED 0.465, read-out: LUCIFERASE INFECTION ASSAY - IC50): > 9.34 µM
Cc1cccc(OCCNC(=O)c2cc(S(=O)(=O)N3CCOCC3)ccc2N2CCOCC2)c1 | > 10 µM | IC50 (HEPG2TOX_HILL_SLOPE 6.77, HEPG2TOX_R_SQUARED 0.742, read-out: LUCIFERASE INFECTION ASSAY - IC50): > 10 µM
C/C(=N\NC(=S)Nc1cccc(C(F)(F)F)c1)c1cc(Cl)ccc1O | > 8.51 µM | IC50 (HEPG2TOX_HILL_SLOPE 6.81, HEPG2TOX_R_SQUARED 0.836, PBLUC_HILL_SLOPE 11, PBLUC_R_SQUARED 0.0541, read-out: LUCIFERASE INFECTION ASSAY - IC50): 7.79 µM
COc1ccc([N+]2=C3CCCCCN3CC2(O)c2ccc(-c3ccccc3)cc2)cc1 (stereo unspecified) | > 10 µM | IC50 (HEPG2TOX_HILL_SLOPE 6.91, HEPG2TOX_R_SQUARED 0.498, PBLUC_HILL_SLOPE 1.91, PBLUC_R_SQUARED 0.528, read-out: LUCIFERASE INFECTION ASSAY - IC50): 3.24 µM
CC(Cc1cccs1)N(Cc1ccc(Cl)cc1)C(=O)c1cc(S(=O)(=O)N2CCOCC2)c(Cl)cc1Cl (stereo unspecified) | > 10 µM | IC50 (HEPG2TOX_HILL_SLOPE 6.93, HEPG2TOX_R_SQUARED 0.0438, read-out: LUCIFERASE INFECTION ASSAY - IC50): > 10 µM
